Measurements as given in PubChem BioAssay AID687000 (Broad Institute, 2013).
Where “and” joins values, the source holds several entries; their conditions need not be identical. Identical values can stand only once. Calls of active or inactive are those of the source.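 How the source made its calls: active means fitted dose curve reaches 40% lysis signal rise at or below the highest valid concentration tested for that sample; inconclusive means flat fit between 30% and 70%, or poor curve fit; inactive means signal falls, stays flat within 30%, or no crossing.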

System: C. neoformans lysis, adenylate kinase release luminescence, 4 h
Test: C. neoformans lysis by adenylate kinase leakage – AK release luminescence, cherry-picks, dose response (AID 687000)

| Structure (SMILES) | AC40 |
| --- | --- |
| S=C(Nc1ccccc1Oc1ccccc1)Nc1cccc(Cl)c1Cl | > 15 µM (inactive) |
| C[C@H](CO)N1C[C@H](C)[C@H](CN(C)C(=O)Nc2cccc3ccccc23)Oc2ccc(NC(=O)Cc3ccccc3)cc2CC1=O | > 15 µM (inactive) |
| COc1ccc(CNC(=S)NCc2ccc(OC(C)C)cc2)cc1 | 8.39 µM |
| C[C@@H]1CN([C@H](C)CO)C(=O)Cc2cc(NC(=O)NC3CCCCC3)ccc2O[C@@H]1CN(C)Cc1ccccc1 | > 15 µM (inactive) |
| C[C@@H]1CN([C@@H](C)CO)C(=O)c2cc(NC(=O)C3CC3)ccc2O[C@H]1CN(C)CC1CCCCC1 | > 15 µM (inactive) |
| Cc1ccc(NC(=O)N2CCCC2C(=O)Nc2c(C)cc(C)cc2C)cc1 (centres undefined) | > 15 µM (inactive) |
| O=C(NC(=S)Nc1ccccc1N1CCCC1)c1ccc([N+](=O)[O-])cc1 | 2.09 µM |
| O=C(NC(=S)Nc1ccccc1N1CCOCC1)c1cccc([N+](=O)[O-])c1 | 5.69 µM |
| CCCN1C[C@H](C)[C@@H](OC)CN(C)C(=O)c2cc(NC(=O)c3cccc(F)c3)ccc2OC[C@@H]1C | > 15 µM (inactive) |
| C[C@@H]1CCCCO[C@H](CN(C)S(=O)(=O)c2cccs2)[C@@H](C)CN([C@@H](C)CO)C(=O)c2cc(NC(=O)CCC(F)(F)F)ccc2O1 | > 15 µM (inactive) |
| C[C@@H]1CN([C@H](C)CO)C(=O)c2cc(C3=CCCCC3)cnc2O[C@H]1CN(C)C(=O)Cc1cccnc1 | > 15 µM (inactive) |
| COC(=O)C1=C(C)N(Cc2ccc(Cl)cc2)C(=S)NC1c1cccc(Cl)c1 (centres undefined) | 2.95 µM |
| Cc1ccc2nc(C)c3c(c2c1)OC(C(C)(Cl)Br)C3 (centres undefined) | > 15 µM (inactive) |
| Cc1noc(C)c1S(=O)(=O)Nc1ccc2c(c1)CC(=O)N([C@H](C)CO)C[C@H](C)[C@H](CN(C)S(=O)(=O)c1cccs1)O2 | > 15 µM (inactive) |
| COc1ccccc1NC(=S)NCc1ccccc1Cl | 7.43 µM |
| CC(C)NC(=O)Nc1ccc2c(c1)CC(=O)N([C@@H](C)CO)C[C@@H](C)[C@H](CN(C)C(=O)Nc1ccc3c(c1)OCO3)O2 | > 15 µM (inactive) |
| O=C(COC(=O)CCC1CCCC1)Nc1nc2c(F)c(F)c(F)cc2s1 | > 15 µM (inactive) |
| O=C(NCCN1CCCCC1)[C@H]1N[C@H]2c3ccc(-c4ccncc4)c(=O)n3C[C@H]2[C@@H]1CO | 12.7 µM |
| C[C@H]1CN([C@@H](C)CO)C(=O)c2cc(NC(=O)Nc3ccc(F)cc3)ccc2O[C@@H]1CN(C)S(C)(=O)=O | > 15 µM (inactive) |
| CCCNC(=O)C[C@@H]1CC[C@@H]2[C@H](COc3ccc(NC(=O)CCC)cc3C(=O)N2C)O1 | > 15 µM (inactive) |

| Structure (SMILES) | AC40 |
| --- | --- |
| Cc1noc(C)c1S(=O)(=O)Nc1ccc2c(c1)C(=O)N([C@@H](C)CO)C[C@@H](C)[C@@H](CN(C)Cc1ccccc1)OCCCC[C@H](C)O2 | > 15 µM (inactive) |
| C[C@H](CO)N1C[C@H](C)[C@H](CN(C)Cc2ccc(-c3ccccc3)cc2)Oc2c(NC(=O)c3ccncc3)cccc2C1=O | > 15 µM (inactive) |
| COc1cccc(NC(=S)NC(=O)Cc2ccc(Cl)cc2)c1 | 1.03 µM |
| CCCOc1ccc(CNC(=S)NCc2ccc(OC(C)C)cc2)cc1 | 14.3 µM |
| COc1ccccc1CNC(=S)NCc1ccc(Cl)cc1 | 2.03 µM |
| Cc1cccc(C)c1NC(=O)CN(C)C(=O)C1CC1C (centres undefined) | > 15 µM (inactive) |
| CC(C)CC#Cc1cnc2c(c1)C(=O)N([C@H](C)CO)C[C@H](C)[C@H](CN(C)C(=O)c1cccnc1)O2 | > 15 µM (inactive) |
| CC(C)NC(=O)Nc1ccc2c(c1)C(=O)N([C@@H](C)CO)C[C@@H](C)[C@@H](CN(C)C(=O)NC(C)C)OCCCC[C@@H](C)O2 | > 15 µM (inactive) |
| COCC(=O)N(C)C[C@H]1Oc2ncc(-c3ccccc3F)cc2C(=O)N([C@@H](C)CO)C[C@H]1C | > 15 µM (inactive) |
| Cc1cccc2sc(N3CCN(C(=O)c4cccs4)CC3)nc12 | > 15 µM (inactive) |
| O=C(CC1CC1)N1[C@@H]2CN(S(=O)(=O)c3ccccc3)c3ccccc3[C@@H]2[C@@H]1CO | > 16 µM (inactive) |
| COC(=O)C1=C(C)N(Cc2ccc(Br)cc2)C(=S)NC1c1ccc(OC)cc1 (centres undefined) | 1.93 µM and 1.57 µM |
| CO[C@@H]1CN(C)C(=O)c2ccc(NC(C)=O)cc2OC[C@@H](C)N(C(=O)Cc2cccnc2)C[C@H]1C | > 13.5 µM (inactive) |
| C[C@@H]1CN([C@@H](C)CO)C(=O)c2cc(NS(=O)(=O)c3cn(C)cn3)ccc2O[C@@H](C)CCCCO[C@@H]1CN(C)Cc1ccc(C(F)(F)F)cc1 | > 15 µM (inactive) |
| S=C(NCCCc1ccccc1)Nc1ccccc1 | 2.56 µM |
| C[C@H]1CN([C@@H](C)CO)C(=O)c2cc(-c3ccc(F)cc3)cnc2O[C@@H]1CN(C)CC1CCCCC1 | > 15 µM (inactive) |
| COC(=O)C1=C(C)N(Cc2ccccc2)C(=S)NC1c1ccc(Cl)cc1 (centres undefined) | 2.45 µM |
| Cc1cccc(-c2ccc([C@H]3[C@H](CO)N4CCCCN(C(=O)c5ccc6c(c5)OCO6)C[C@@H]34)cc2)c1 | > 15 µM (inactive) |
| COC(=O)C1=C(C)N(Cc2ccccc2)C(=S)NC1c1ccc(Br)cc1 (centres undefined) | 2.58 µM |
| CCc1ccc(C(C)NC(=S)NCc2ccc(F)cc2)cc1 (centres undefined) | 0.511 µM |

| Structure (SMILES) | AC40 |
| --- | --- |
| CCCC(=O)Nc1ccc2c(c1)C(=O)N(C)C[C@H](OC)[C@@H](C)CN(C(=O)c1cccnc1)[C@@H](C)CO2 | > 15 µM (inactive) |
| CCOc1ccc(CNC(=S)NCc2ccc(OCC)cc2)cc1 | > 15 µM (inactive) |
| COc1ccccc1C#Cc1ccc2c(c1)O[C@H](CN(C)C(C)=O)[C@H](C)CN([C@@H](C)CO)S2(=O)=O | > 15 µM (inactive) |
| C[C@H](CO)N1C[C@H](C)[C@@H](CN(C)C(=O)c2ccncc2)OCCCC[C@H](C)Oc2ccc(NC(=O)Cc3ccccc3)cc2C1=O | > 15 µM (inactive) |
| CC(C)C#Cc1ccc([C@@H]2[C@H](CO)N3CCCCN(C(=O)c4ccc5c(c4)OCO5)C[C@@H]23)cc1 | > 15 µM (inactive) |
| COc1ccc(C(=O)NC(=S)Nc2cccc(Cl)c2N2CCOCC2)cc1[N+](=O)[O-] | > 15 µM (inactive) |
| COC(=O)C1=C(C)N(Cc2ccc(F)cc2)C(=S)NC1c1ccccc1 (centres undefined) | 2.68 µM |
| COc1ccc(NC(=S)NCc2ccc(Cl)cc2)c(OC)c1 | 4.16 µM |
| COC(=O)C1=C(C)N(Cc2ccccc2)C(=O)N[C@H]1c1cccc(F)c1 | > 15 µM (inactive) |
| CO[C@@H]1CN(C)C(=O)c2cc(NS(=O)(=O)c3cccc(C)c3)ccc2OC[C@@H](C)NC[C@H]1C | > 15 µM (inactive) |
| CC[C@H](C)[C@@H]1NC(=O)CNC(=O)c2csc(n2)[C@H](C(C)(C)O)OC(=O)C(C)(C)[C@H](CCCC(C)(Cl)Cl)OC(=O)c2csc1n2 | 2.66 µM |
| S=C(Nc1cccc(Cl)c1)Nc1ccccc1Oc1ccccc1 | > 15 µM (inactive) |
| CCCCN1C(=S)NC[C@@H]1Cc1ccccc1 | 5.11 µM |
| COC(=O)C1=C(C)N(Cc2ccc(F)cc2)C(=S)NC1c1ccc(F)cc1 (centres undefined) | 6.96 µM |
| C[C@@H]1CCCCO[C@H](CN(C)C(=O)CCCN(C)C)[C@@H](C)CN([C@H](C)CO)C(=O)c2cc(NC(=O)Cc3ccccc3)ccc2O1 | > 15 µM (inactive) |
| CCCC(=O)Nc1ccc2c(c1)C(=O)N(C)C[C@H](OC)[C@@H](C)CN(C(=O)c1cccnc1)[C@H](C)CO2 | 13.7 µM |
| COC(=O)C1=C(C)N(CC(C)C)C(=S)NC1c1ccc(F)cc1 (centres undefined) | 3.52 µM |
| COC(=O)C1=C(C)N(CC(C)C)C(=S)NC1c1ccc(-c2ccccc2)cc1 (centres undefined) | > 15 µM (inactive) and 1.4 µM |
| COC(=O)C1=C(C)N(Cc2ccc(Cl)cc2)C(=S)NC1c1cccc(OC)c1 (centres undefined) | 3.04 µM |
